In patent publication US20210387952A1, “SOLID STATE FORMS OF D[…] PROCESS FOR PREPARATION THEREOF” (TEVA PHARMACEUTICALS INTERNATIONAL GMBH, priority 2018, published 2021):

Experiment: Solid state (polymorphic and chemical) stability on storage

For `O=C(O)CNC(=O)c1c(O)n(C2CCCCC2)c(=O)n(C2CCCCC2)c1=O` [Form 3, 2-[(1,3-dicyclohexyl-2,4,6-trioxo-1,3-diazinane-5-carbonyl)amino]acetic acid], the “polymorphic and chemical stability” value (crystalline solid form) was “polymorphically and chemically stable” and the “storage time over which the form is stable” value (stored in closed bottles) was “at least 2 weeks”.
